Source: patent US20100239563A1 (priority 2001, published 2010)

How the values were obtained:
[1] = test system: influenza A virus strain fowl plague virus A/Fpv/Bratislava/79; type: cell-based
[2] = test system: influenza A virus strain fowl plague virus A/Fpv/Bratislava/79 (H7N7); type: cell-based

Row | SMILES | virus multiplication vs cells not treated with SB202190 [1] | virus multiplication vs cells not treated with U0126 [2]
1 | Oc1ccc(-c2nc(-c3ccc(F)cc3)c(-c3ccncc3)[nH]2)cc1 [SB202190, 4-(4-fluorophenyl)-2-(4-hydroxyphenyl)-5-(4-pyridyl) 1H-imidazole] | significantly inhibited | –
2 | N#CC(=C(N)Sc1ccccc1N)C(C#N)=C(N)Sc1ccccc1N [U0126, 1,4-diamino-2,3-dicyano-1,4-bis(2-aminophenylthio)butadiene] | – | significantly inhibited
